{
  "source": "patent US12409209B2",
  "about": "“Biological function regulating agent, epidermal metabolism promoting agent, fat accumulation inhibiting agent, fat decomposition promoting agent, adiponectin production promoting agent, functional food, cosmetic product, and method for producing biological function regulating agent” (NITTA GELATIN INC., priority 2020, dated 2025)",
  "key": {"[1]": {"system": "fat cells differentiated from mouse-derived precursor fat cells (3T3-L1)", "assay": "Third test: fat accumulation in fat cells (Oil Red O, OD 520 nm)", "type": "cell-based", "details": "positive control, final conc. 2 μg/mL; 3T3-L1 5 passages, 9 PDL; average of three", "method": "Specifically, the third test was conducted in accordance with the following procedure. The mouse-derived precursor fat cells (manufactured by Research Resources Bank, Resource No. JCRB 9014, Lot No. 01282009) were precultured in a culture medium (DMEM/F12 medium (passage culture, catalog No: “11330-032”, manufactured by Gibco Company, containing 10 mass % FBS, penicillin and streptomycin). Subsequently, from the medium and the cells subjected to the preculture, a cell suspension liquid containing the cells at 3×10^4 cells/mL was prepared. Further, 5 mL of the cell suspension liquid was seeded in each of 60 mm dishes (catalog No: Corning, Cat. No. 430166) (1.5×10^5 cells/dish), and cultured for 2 days under the condition of 37° C. (5 vol % CO2). […] 200 μL of the extraction liquid was transferred to a 96-well plate, and the absorbance at OD 520 nm was measured with an absorption spectrometer (trade name: “Synergy HTX” manufactured by Biotech Japan Corporation). It is evaluated that the higher the value of the absorbance at OD 520 nm, the more likely the fat accumulation is to occur in fat cells. […] The fat accumulation ratio in fat cells containing each sample, the berberine chloride solution or RO water was determined in accordance with the following calculation expression. […]"}, "[2]": {"system": "fat cells differentiated from mouse-derived precursor fat cells (3T3-L1)", "assay": "Eleventh test: fat accumulation in fat cells (Oil Red O)", "type": "cell-based", "details": "positive control, final conc. 2 ug/mL; 3T3-L1 7 passages, 13 PDL", "method": "The mouse-derived precursor fat cells (manufactured by Research Resources Bank, Resource No. JCRB 9014, Lot No. 01282009) were precultured in a culture medium (DMEM/F12 medium (passage culture, catalog No: “11330-032”, manufactured by Gibco Company, containing 10 mass % FBS, penicillin and streptomycin). Subsequently, from the medium and the cells subjected to the preculture, a cell suspension liquid containing the cells at 3×10^4 cells/mL was prepared. Further, 5 mL of the cell suspension liquid was seeded in each of 60 mm dishes (catalog No: Corning, Cat. No. 430166) (1.5×10^5 cells/dish), and cultured for 2 days under the condition of 37° C. (5 vol % CO2). […] 200 μL of the extraction liquid was transferred to a 96-well plate, and the absorbance at OD 520 nm was measured with an absorption spectrometer (trade name: “Synergy HTX” manufactured by Biotech Japan Corporation). It is evaluated that the higher the value of the absorbance at OD 520 nm, the more likely the fat accumulation is to occur in fat cells. […] The fat accumulation ratio in fat cells containing each sample, the berberine chloride solution or RO water was determined in accordance with the following calculation expression. Fat accumulation ratio (%)=[(measured value at OD 520 nm for each sample)/(measured value at OD 520 nm for blank)×100] […]"}},
  "data": [
    {"smiles": "COc1ccc2cc3[n+](cc2c1OC)CCc1cc2c(cc1-3)OCO2", "note": "[Berberine chloride, berberine chloride]", "values": [
      {"measurement": "Fat accumulation ratio, Ave (Blank = 100)", "setting": "[1]", "result": 37, "unit": "%"},
      {"measurement": "Fat accumulation ratio, Ave (Blank = 100)", "setting": "[2]", "result": 60, "unit": "%"}
    ]}
  ]
}
